The test system of the assay is TC-1 tumors. Description: In vivo tumor treatment experiment, TC-1 tumor-bearing mice (tumor volume, survival). Details: species or system C57BL/6 mice. To be noted: combinatorial treatment with cisplatin; compared to cisplatin alone. The protocol: Left panel is representative flow cytometry analysis. […] IgG antibody was used as a control. […] Left panel is representative flow cytometry.
For in vivo tumor treatment experiment using only protein, 1×10^5 TC-1 cells were injected subcutaneously into C57BL/6 mice (10 per group). After 3 days, 100 μg of each protein was injected intravenously three times with 3 day intervals. Mice were monitored for tumor growth by palpation and inspection twice a week. For in vivo combined tumor treatment experiments, 1×10^5 TC-1 cells or 5×10^5 CT 26 cells were subcutaneously injected into C57BL/6 mice (10 per group) or BALB/c mice. After 5 days, cisplatin (5 mg/kg) or saline (control) was intraperitoneally injected two times at a 3 day interval. 6 days after tumor challenge, mice received 100 μg of protein each, intravenously injected three times with 3 day intervals.

Turning to “AnnexinV: Annexin V protein alone, purified from E. coli, used as control”, the “therapeutic anti-tumor effect in TC-1 tumor bearing mice” value is “did not generate a significantly better therapeutic anti-tumor effect”.

The values are drawn from US11766478B2, “Methods for enhancing antigen-specific immune responses” (priority 2015, dated 2023).
